Paper PMC7566913, “Dual Gene Delivery Reagents From Antiproliferative Alkylphospholipids for Combined Antitumor Therapy” (Frontiers in Chemistry, 2020)

Experiments:
[1] = CMC/CAC by pyrene fluorescent probe technique in ultrapure water; format: physicochemical; details: pyrene fluorescence
Description: The pro-APL molecules have been specifically engineered so they can be metabolized in situ under a biological stimulus to revert to the parent APL with antiproliferative activity. […] We thus aimed to determine the self-assembly properties of the APL prodrugs. […] Pyrene is a probe which fluorescence is sensitive to the polarity of the solubilizing medium. […] Fluorescence measurements were carried out in ultrapure water and data obtained for the various APLs and their prodrugs are shown in Table 2.
Pro-APLs Self-Assembly Properties
Starting from a lipid film, compounds were […]

[2] = system: 16HBE cells; assay: Cytotoxicity, MTT assay, 16HBE; format: cell-based, human; details: Homo sapiens, 24 h at 37°C
Description: The cells were exposed for a 24-h period to increasing concentration of the pro-APLs, ranging from 500 nM to 1 mM, and cell viability was assessed using the MTT colorimetric assay (Mosmann, [1983]). For the three cell lines, viability decreased in a dose-dependent manner in response to APLs and pro-APLs (Supplementary Figures 2–4). Using the best-fit regression curve method, the IC50 value (concentration that provokes 50% inhibition of the cell growth) was calculated for each compound (Table 4). The three cell lines responded to the compounds with varying sensitivities. […] This is attributed to enzyme-mediated hydrolysis of the pro-APL compounds in the complemented culture medium or in the intracellular compartment, competing with pure pH-controlled chemical hydrolysis. According to its structure, a pro-APL may or not be a substrate for specific lipases and, thus, may or not be hydrolyzed into the parent cytotoxic compound. […]
At confluency, cells were released […]
Cells were seeded into 96-well plates (Becton-Dickinson) at the required density (vide supra) in 100 µL of serum containing culture medium. […]
Mitochondrial activity measurements (MTT assay) was used to assess cytotoxicity of the compounds.
Lipid samples were prepared from a lipid film (3.6 µmol of compound evaporated from an ethanolic solution) hydrated with aqueous glucose 5 % and vigorously vortexed for 20 s before serial dilution in aqueous glucose 5 %. For addition of lipid samples to cell culture, part of the culture medium in the culture plates prepared the day before (25 µL) was removed and replaced by lipid samples (25 µL). Negative control was obtained by adding glucose 5 % to the cells instead of lipoplexes.
After a 24-h incubation period at 37 °C, culture supernatant was removed, cells were carefully washed with PBS and MTT (100 µL, 0.5 mg/mL) in complete culture medium was added. After a 1-h incubation period at 37 °C, the MTT sol ution was removed and DMSO (100 µL) was added to lyse cells and dissolve reduced MTT. Intensity of MTT reduction was then evaluated by measuring absorbance at 492 nm. Viability of cells treated with lipids or lipoplexes was expressed as the percentage of the absorbance measured in untreated cells. Value for each sample is the mean of triplicate determinations (± SD). IC50 values were determined within the 95 % confidence interval using nonlinear regression analysis with the GraphPad Prism software (GraphPad Software, San […]
All data are representative of a triplicate determination and are presented as the mean ± SD.
Statistical significance between treatments was assessed by one-way analysis of variance (ANOVA) followed by the Dunnett multiple comparison test, using the Kaleidagraph 4.5 software (Synergy Software, Reading, PA, USA). Data were considered as statistically significant for p value less than

[3] = Particle size and zeta potential of lipoplexes by DLS; format: physicochemical; details: lipoplexes with pCMV-Gluc, 25 °C, 5 % glucose, N/P 3, 1 molar equivalent of DOPE
Source text: The capacity of the pro-APLs to interact electrostatically with nucleic acids and form lipoplexes was checked by standard agarose gel electrophoresis. […] The size (hydrodynamic diameter) and charge (zeta potential, ζ) of the lipoplexes prepared at an N/P ratio of 3 with one molar equivalent of dioleoyl-sn-glycero-3-phosphatidylethanolamine (DOPE), a lipid with fusogenic properties (Hui et al., [1996]; Zuhorn et al., [2005]), were investigated by DLS (Supplementary Table 1).
as measured by DLS. Lipoplexes were prepared at 25 °C, in 5 % glucose, at a N/P ratio of 3 and with
1 molar equivalent of DOPE.
(Gaillard et al., 2019). Data are the mean of three independent measurements (± SD).

[4] = system: sheep RBC; assay: Hemolytic activity, red blood cell leakage assay; details: 37°C
Description: To evaluate this hypothesis, the hemolytic activity of the APLs and pro-APLs was measured. Sheep RBC were incubated for 1 h with escalating doses of aqueous dispersion of the compounds at 37°C. At the end of the incubation period, hemoglobin leakage was determined spectrophotometrically.
Thus, in order to better characterize the hemolytic effect of the pro-APLs, the incubation period has been extended and release of hemoglobin was measured after 24 h.
Red blood cell (RBC) leakage assay was carried out according to a previously described procedure
(Evans et al, 2013). RBC were prepared from defibrinated sheep blood. Briefly, blood sample (5 mL) was centrifuged at 500 x g for 5 min. After removal of the yellow upper layer, an equal volume of

For CCCCCCCCCCCCCCCCCCOP(=O)(OCOC(=O)CCCCCCCCCCC)OC1CC[N+](C)(C)CC1.[Cl-] (centres unmarked) [PE12, 4-((((Dodecanoyloxy)methoxy)(octadecyloxy)phosphoryl)oxy)-1,1-dimethylpiperidin-1-ium chloride], the “CMC (APLs) / CAC (pro-APLs)” value [1] was 2.9 ± 1.0 µM, the IC50 [2] was 231 ± 70 µM and the “Particle size of lipoplexes” value [3] was 330 ± 76 nm. The “HA200 (hemolytic activity at 200 μM)” value ([4]; 1 h) was 7.1 ± 0.9% and the “HA200 (hemolytic activity at 200 μM)” value ([4]; 24 h) was 20.6 ± 5.9%.
